Reference: ChEMBL document CHEMBL5291721, “A preclinical secondary pharmacology resource illuminates target-adverse drug reaction associations of marketed drugs” (Nat Commun, 2023)

Legend:
[1] = molecular target: T1, Androgen receptor (Rattus norvegicus, UniProt P15207); assay type: functional
T1 sequence (P15207 whole entry): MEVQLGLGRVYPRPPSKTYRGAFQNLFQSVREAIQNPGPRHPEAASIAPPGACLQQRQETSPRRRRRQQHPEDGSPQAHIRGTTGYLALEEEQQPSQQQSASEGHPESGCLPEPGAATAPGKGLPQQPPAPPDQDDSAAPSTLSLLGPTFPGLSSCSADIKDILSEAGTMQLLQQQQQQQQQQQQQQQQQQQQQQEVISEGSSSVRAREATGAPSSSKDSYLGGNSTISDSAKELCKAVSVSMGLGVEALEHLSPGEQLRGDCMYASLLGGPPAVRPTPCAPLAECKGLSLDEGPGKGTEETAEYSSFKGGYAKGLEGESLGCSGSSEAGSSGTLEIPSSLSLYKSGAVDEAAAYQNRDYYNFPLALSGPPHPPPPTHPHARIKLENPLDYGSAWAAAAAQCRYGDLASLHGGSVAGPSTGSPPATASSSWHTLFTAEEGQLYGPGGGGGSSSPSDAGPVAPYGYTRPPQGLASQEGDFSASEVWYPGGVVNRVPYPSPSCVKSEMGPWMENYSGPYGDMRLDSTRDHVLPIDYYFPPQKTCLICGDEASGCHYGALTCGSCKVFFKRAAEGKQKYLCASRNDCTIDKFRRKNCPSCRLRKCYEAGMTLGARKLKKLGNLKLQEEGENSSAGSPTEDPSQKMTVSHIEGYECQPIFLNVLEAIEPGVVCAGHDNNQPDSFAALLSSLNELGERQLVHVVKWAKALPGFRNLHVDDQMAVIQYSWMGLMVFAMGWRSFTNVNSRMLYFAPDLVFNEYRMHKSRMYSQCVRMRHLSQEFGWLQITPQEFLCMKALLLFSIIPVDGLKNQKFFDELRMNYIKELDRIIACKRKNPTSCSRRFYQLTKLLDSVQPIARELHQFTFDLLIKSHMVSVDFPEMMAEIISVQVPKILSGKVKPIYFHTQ

[2] = molecular target: T2, Thromboxane A2 receptor (Homo sapiens, UniProt P21731); assay type: functional
T2 sequence (P21731 whole entry): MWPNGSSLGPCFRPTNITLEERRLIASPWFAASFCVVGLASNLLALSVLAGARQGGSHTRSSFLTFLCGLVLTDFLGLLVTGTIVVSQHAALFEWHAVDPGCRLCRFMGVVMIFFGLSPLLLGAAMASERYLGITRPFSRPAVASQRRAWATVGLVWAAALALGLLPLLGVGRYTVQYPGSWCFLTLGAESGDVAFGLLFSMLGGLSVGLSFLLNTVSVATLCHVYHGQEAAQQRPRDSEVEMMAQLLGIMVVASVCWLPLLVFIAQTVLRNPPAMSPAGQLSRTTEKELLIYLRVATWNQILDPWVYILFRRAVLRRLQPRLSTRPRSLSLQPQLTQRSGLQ

[3] = molecular target: Acetylcholinesterase (Homo sapiens, UniProt P22303); assay type: functional
[4] = molecular target: T2, Thromboxane A2 receptor; assay type: functional, cell-based
[5] = molecular target: T3, Adenosine receptor A1 (Homo sapiens, UniProt P30542)
T3 sequence (P30542 whole entry): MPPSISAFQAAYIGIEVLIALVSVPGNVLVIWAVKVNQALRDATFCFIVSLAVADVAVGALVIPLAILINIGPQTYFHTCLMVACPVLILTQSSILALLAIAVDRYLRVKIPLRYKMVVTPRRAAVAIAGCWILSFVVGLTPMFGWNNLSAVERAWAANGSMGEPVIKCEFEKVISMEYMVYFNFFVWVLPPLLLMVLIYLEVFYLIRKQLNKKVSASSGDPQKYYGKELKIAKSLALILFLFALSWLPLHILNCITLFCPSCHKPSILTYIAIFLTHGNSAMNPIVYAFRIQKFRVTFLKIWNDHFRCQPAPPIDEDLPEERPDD

[6] = molecular target: Sodium channel protein type 5 subunit alpha (Homo sapiens, UniProt Q14524); assay type: functional, cell-based
[7] = molecular target: Gamma-aminobutyric acid type B receptor subunit 1 (Homo sapiens, UniProt Q9UBS5)
[8] = molecular target: Voltage-dependent L-type calcium channel subunit alpha-1C (Homo sapiens, UniProt Q13936); assay type: functional, cell-based
[9] = molecular target: 5-hydroxytryptamine receptor 6 (Homo sapiens, UniProt P50406)
[10] = molecular target: 5-hydroxytryptamine receptor 7 (Homo sapiens, UniProt P34969)
[11] = molecular target: T1, Androgen receptor
[12] = molecular target: T4, Muscarinic acetylcholine receptor M5 (Homo sapiens, UniProt P08912)
T4 sequence (P08912 whole entry): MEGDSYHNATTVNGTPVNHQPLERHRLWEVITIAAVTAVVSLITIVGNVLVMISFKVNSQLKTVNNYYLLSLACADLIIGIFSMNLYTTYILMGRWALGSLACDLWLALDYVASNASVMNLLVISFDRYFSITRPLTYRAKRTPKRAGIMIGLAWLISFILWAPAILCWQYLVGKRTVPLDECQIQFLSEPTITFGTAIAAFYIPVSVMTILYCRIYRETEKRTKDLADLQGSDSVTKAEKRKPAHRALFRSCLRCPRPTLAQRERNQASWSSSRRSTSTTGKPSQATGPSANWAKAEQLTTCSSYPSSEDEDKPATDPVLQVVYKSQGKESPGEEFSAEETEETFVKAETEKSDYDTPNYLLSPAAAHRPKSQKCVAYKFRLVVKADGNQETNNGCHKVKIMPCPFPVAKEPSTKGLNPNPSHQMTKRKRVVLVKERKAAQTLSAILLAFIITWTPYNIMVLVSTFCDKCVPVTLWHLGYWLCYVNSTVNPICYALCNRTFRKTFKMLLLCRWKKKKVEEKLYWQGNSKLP

[13] = molecular target: D(1B) dopamine receptor (Homo sapiens, UniProt P21918)
[14] = molecular target: Cannabinoid receptor 1 (Homo sapiens, UniProt P21554); assay type: functional
[15] = molecular target: Hydroxycarboxylic acid receptor 2 (Homo sapiens, UniProt Q8TDS4)
Further: assay procedure not described here.

Sequence of Gamma-aminobutyric acid type B receptor subunit 1 (Q9UBS5 whole entry): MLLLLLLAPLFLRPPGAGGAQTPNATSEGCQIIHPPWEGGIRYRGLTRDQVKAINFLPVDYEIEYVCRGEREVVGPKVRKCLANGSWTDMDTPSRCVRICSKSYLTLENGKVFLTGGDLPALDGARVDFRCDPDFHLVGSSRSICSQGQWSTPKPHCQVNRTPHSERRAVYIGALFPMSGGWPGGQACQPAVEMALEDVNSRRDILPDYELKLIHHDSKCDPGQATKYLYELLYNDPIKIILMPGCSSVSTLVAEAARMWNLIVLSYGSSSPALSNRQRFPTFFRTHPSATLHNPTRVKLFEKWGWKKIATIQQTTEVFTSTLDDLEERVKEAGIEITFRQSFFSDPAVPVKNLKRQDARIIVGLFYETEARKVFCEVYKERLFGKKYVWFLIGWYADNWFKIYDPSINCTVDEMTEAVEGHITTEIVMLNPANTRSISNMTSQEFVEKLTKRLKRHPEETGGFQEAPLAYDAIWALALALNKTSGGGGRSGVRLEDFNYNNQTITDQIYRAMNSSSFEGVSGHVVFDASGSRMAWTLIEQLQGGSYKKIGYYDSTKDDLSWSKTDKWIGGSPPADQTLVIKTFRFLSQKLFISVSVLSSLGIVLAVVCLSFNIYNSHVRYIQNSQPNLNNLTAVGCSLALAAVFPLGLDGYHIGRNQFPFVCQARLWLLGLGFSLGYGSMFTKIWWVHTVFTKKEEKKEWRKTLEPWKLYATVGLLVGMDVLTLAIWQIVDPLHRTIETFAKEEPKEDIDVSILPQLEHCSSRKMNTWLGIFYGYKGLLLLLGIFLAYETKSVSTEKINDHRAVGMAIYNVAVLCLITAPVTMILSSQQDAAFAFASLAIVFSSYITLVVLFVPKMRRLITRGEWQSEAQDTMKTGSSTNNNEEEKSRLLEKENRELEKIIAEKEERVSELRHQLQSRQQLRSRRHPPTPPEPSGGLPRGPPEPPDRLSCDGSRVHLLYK
Sequence of Cannabinoid receptor 1 (P21554 whole entry): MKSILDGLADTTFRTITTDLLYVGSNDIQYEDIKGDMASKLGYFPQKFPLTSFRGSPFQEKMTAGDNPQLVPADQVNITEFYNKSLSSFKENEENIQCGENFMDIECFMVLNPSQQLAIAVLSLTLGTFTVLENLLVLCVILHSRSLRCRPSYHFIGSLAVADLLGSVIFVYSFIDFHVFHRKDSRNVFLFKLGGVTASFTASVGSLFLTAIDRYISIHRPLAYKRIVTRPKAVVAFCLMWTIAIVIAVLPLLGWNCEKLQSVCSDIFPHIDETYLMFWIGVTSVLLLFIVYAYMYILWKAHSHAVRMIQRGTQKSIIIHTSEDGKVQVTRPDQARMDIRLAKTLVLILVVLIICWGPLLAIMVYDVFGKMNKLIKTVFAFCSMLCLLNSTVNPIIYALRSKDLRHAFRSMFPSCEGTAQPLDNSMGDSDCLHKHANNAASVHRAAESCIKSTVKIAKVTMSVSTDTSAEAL
Sequence of 5-hydroxytryptamine receptor 6 (P50406 whole entry): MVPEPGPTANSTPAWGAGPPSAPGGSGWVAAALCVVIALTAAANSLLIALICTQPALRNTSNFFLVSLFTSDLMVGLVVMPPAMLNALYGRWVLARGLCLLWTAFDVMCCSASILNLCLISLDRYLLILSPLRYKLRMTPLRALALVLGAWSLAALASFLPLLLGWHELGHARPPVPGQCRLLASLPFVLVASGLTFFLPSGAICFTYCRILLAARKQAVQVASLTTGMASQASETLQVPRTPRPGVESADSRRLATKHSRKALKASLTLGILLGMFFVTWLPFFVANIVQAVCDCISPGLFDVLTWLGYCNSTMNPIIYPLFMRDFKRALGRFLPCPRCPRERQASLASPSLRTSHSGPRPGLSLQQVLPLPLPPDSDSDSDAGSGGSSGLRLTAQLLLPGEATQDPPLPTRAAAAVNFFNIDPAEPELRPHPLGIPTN
Sequence of Acetylcholinesterase (P22303 whole entry): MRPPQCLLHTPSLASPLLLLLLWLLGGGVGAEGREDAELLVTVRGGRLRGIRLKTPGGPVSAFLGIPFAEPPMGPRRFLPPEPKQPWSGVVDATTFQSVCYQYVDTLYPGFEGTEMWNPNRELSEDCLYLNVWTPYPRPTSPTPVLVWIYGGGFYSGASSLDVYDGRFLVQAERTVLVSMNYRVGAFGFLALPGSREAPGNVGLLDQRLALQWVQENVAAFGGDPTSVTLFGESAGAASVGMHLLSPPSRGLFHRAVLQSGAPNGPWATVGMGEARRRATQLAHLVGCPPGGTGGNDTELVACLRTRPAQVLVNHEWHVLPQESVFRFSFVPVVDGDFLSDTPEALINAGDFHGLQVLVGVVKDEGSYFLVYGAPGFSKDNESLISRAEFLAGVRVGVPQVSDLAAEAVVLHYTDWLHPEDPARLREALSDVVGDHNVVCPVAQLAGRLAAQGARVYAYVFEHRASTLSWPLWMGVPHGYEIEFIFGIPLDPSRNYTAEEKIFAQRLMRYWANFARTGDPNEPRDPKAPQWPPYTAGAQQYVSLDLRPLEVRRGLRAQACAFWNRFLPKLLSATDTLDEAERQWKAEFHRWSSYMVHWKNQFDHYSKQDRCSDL
Sequence of 5-hydroxytryptamine receptor 7 (P34969 whole entry): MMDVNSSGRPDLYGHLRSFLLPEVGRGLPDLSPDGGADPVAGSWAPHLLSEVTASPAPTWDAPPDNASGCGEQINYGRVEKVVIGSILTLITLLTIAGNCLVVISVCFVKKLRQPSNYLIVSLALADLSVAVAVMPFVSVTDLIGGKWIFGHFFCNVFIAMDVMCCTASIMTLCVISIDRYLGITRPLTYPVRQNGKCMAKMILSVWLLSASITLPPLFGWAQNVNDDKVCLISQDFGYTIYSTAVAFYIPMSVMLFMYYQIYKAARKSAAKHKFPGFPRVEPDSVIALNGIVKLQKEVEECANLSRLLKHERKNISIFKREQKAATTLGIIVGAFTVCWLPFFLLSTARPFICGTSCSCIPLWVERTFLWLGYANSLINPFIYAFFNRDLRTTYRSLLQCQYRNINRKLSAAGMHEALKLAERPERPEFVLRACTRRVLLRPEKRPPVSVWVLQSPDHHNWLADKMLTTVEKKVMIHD
Sequence of Hydroxycarboxylic acid receptor 2 (Q8TDS4 whole entry): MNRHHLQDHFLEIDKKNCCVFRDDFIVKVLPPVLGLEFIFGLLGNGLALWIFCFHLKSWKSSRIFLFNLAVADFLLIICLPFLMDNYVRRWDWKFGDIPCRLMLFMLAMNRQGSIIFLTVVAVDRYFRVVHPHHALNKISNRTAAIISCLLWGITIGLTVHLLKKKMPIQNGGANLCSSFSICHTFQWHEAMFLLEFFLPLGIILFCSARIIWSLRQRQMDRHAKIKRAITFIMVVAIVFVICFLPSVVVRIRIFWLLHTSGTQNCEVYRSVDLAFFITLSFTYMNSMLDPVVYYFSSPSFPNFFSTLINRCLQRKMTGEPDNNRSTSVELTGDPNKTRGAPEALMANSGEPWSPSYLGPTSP
Sequence of D(1B) dopamine receptor (P21918 whole entry): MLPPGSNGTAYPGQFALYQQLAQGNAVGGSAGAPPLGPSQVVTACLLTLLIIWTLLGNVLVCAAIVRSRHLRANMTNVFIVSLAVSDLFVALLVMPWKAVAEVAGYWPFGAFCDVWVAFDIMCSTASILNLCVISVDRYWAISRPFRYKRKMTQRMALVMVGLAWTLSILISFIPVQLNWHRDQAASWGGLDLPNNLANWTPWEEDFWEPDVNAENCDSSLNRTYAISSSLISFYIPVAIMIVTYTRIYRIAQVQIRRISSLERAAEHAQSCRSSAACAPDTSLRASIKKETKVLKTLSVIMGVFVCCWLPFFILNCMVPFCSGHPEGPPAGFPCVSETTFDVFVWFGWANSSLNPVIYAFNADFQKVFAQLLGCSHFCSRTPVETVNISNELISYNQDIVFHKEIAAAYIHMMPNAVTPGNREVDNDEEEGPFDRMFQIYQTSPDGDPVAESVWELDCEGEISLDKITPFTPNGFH

For `CNC1Cc2ccccc2N(C)c2ccccc21` (stereo not drawn) [METAPRAMINE], the AC50 [1] was > 30 µM, the AC50 [2] was > 30 µM and the AC50 [3] was > 30 µM. The AC50 [4] was > 30 µM.
In the case of `CC1(C)NC(=O)N(c2ccc([N+](=O)[O-])c(C(F)(F)F)c2)C1=O` [NILUTAMIDE], the AC50 [5] is reported as > 30 µM.
`COc1ccc(CC(C)(C)NC[C@H](O)c2cc(O)cc3c2OCC(=O)N3)cc1` [OLODATEROL] was tested, and the AC50 [1] was > 30 µM, the AC50 [6] was > 50 µM and the AC50 [3] was > 30 µM.
With `CCCN1C[C@H](CSC)C[C@@H]2c3cccc4[nH]cc(c34)C[C@H]21` [PERGOLIDE] the AC50 [7] was > 10 µM.
For `C1CCC(C(CC2CCCCN2)C2CCCCC2)CC1` (stereo not drawn) [PERHEXILINE], the AC50 [1] was > 30 µM.
With `c1cnc(N2CCN(Cc3ccc4c(c3)OCO4)CC2)nc1` [PIRIBEDIL] the AC50 [2] was > 30 µM, the AC50 [3] was > 30 µM and the AC50 [4] was > 30 µM.
For `COCCCN1CCC(NC(=O)c2cc(Cl)c(N)c3c2OCC3)CC1` [PRUCALOPRIDE], the AC50 [5] was > 30 µM.
For `COc1ccccc1OCC(O)CN1CCN(CC(=O)Nc2c(C)cccc2C)CC1` (stereo not drawn) [RANOLAZINE], the AC50 [8] was > 50 µM.
`Cc1c(C(=O)NN2CCCCC2)nn(-c2ccc(Cl)cc2Cl)c1-c1ccc(Cl)cc1` [RIMONABANT] was tested, and the AC50 [1] was > 30 µM, the AC50 [2] was > 30 µM and the AC50 [9] was > 10 µM. For the same molecule, the AC50 [10] was > 10 µM, the AC50 [11] was > 30 µM and the AC50 [3] was > 30 µM. The AC50 [12] was > 10 µM, the AC50 [13] was > 10 µM and the AC50 [4] was > 30 µM.
With `CS(=O)(=O)c1ccc(C2=C(c3ccccc3)C(=O)OC2)cc1` [ROFECOXIB] the AC50 [9] was > 10 µM, the AC50 [10] was > 10 µM and the AC50 [7] was > 10 µM. For the same molecule, the AC50 [14] was > 10 µM, the AC50 [12] was > 10 µM and the AC50 [13] was > 10 µM.
In the case of `Cc1cn([C@H]2C=C[C@@H](CO)O2)c(=O)[nH]c1=O` [STAVUDINE], the AC50 [2] is reported as > 30 µM, the AC50 [9] is reported as > 10 µM and the AC50 [10] is reported as > 10 µM. The AC50 [7] was > 10 µM, the AC50 [14] was > 10 µM and the AC50 [12] was > 10 µM. The AC50 [5] was > 30 µM and the AC50 [4] was > 30 µM.
With `Cn1nnc2c(C(N)=O)ncn2c1=O` [TEMOZOLOMIDE] the AC50 [2] was > 30 µM, the AC50 [9] was > 10 µM and the AC50 [10] was > 10 µM. For the same molecule, the AC50 [7] was > 10 µM, the AC50 [3] was > 30 µM and the AC50 [14] was > 10 µM. For the same molecule, the AC50 [12] was > 10 µM and the AC50 [4] was > 30 µM.
With `Clc1ccc2nsnc2c1NC1=NCCN1` [TIZANIDINE] the AC50 [11] was > 30 µM and the AC50 [15] was > 10 µM.
For `CCOC(=O)[C@H](CCc1ccccc1)N[C@@H](C)C(=O)N1[C@H](C(=O)O)C[C@H]2CCCC[C@@H]21` [TRANDOLAPRIL], the AC50 [5] was > 30 µM.
With `O=C(O[C@H]1C[C@H]2CC[C@@H](C1)[N+]21CCCC1)C(O)(c1ccccc1)c1ccccc1` [TROSPIUM] the AC50 [1] was > 30 µM.
With `N[C@@H]1[C@H]2CN(c3nc4c(cc3F)c(=O)c(C(=O)O)cn4-c3ccc(F)cc3F)C[C@@H]12` [TROVAFLOXACIN] the AC50 [1] was > 30 µM, the AC50 [2] was > 30 µM and the AC50 [3] was > 30 µM. For the same molecule, the AC50 [4] was > 30 µM.
`Cc1cn([C@H]2C[C@H](N=[N+]=[N-])[C@@H](CO)O2)c(=O)[nH]c1=O` [ZIDOVUDINE] was tested, and the AC50 [6] was > 30 µM, the AC50 [7] was > 10 µM and the AC50 [15] was > 10 µM.
`NS(=O)(=O)Cc1noc2ccccc12` [ZONISAMIDE] was tested, and the AC50 [11] was > 10 µM.
